Measurements reported in PMC6804113, “Cyclic Peptides Acting as Allosteric Inhibitors of Human Thymidylate Synthase and Cancer Cell Growth” (Molecules, 2019).
Several values for one entry are separate records, joined by “and”; a condition that tells them apart may be missing. Equal values may be shown once. Entries after “also recorded” stand apart in the source; their conditions may differ. Read-outs that look alike come from different tables or passages of the source. Starred links: 1 amine or outer side, 2 acyl side, 3 side chain; linkers in the order of their positions; H or OH if unused. Positions of bridges follow the written chain, without caps; N, C: chain ends. Residues, ends and D or L forms follow the SMILES beside them. No end group written: not given here. Cysteamide = C(CS[*:3])N[*:1]

Key:
[1] = molecular target: T1, recombinant human thymidylate synthase (hTS) (Homo sapiens, UniProt P04818); test: hTS inhibition assay (spectrophotometric, absorbance at 340 nm); format: biochemical; conditions: for % inhibition of hTS / inhibition at 500 µM: at 500 µM and r.t.
T1 construct: made in house
Protocol: hTS was purified as previously reported. The enzyme solution was thawed the day of the experiment and the enzyme concentration was determined by UV−Vis spectroscopy (Varian Cary 100, Agilent, Santa Clara, CA, USA) using ε280 = 89000 M^−1 cm^−1 and Mr = 74 229. The thawed protein solution was kept constantly at 4 °C. In this condition, the enzyme was able to reproduce normal kinetic activity values (KM dUMP = 10−12 μM, KM mTHF = 4−6 μM, kcat = 0.8−0.9 s^−1). The peptide solution was mixed or vortexed in order to help solubilization; the precise concentration was determined through UV−Vis spectroscopy. A stock solution of mTHF was prepared in carbonate buffer. The stock was prepared in the range of 5 to 6 mM. A stock solution of dUMP was prepared in bidistilled water in the range of 10−12 mM. Peptide inhibitors were tested without incubation with hTS in […], at 25 °C. A 1 mL amount of assay buffer consisted of 50 mM TES, pH 7.4, containing 25 mM MgCl2, 6.5 mM HCHO, 1 mM EDTA, 75 mM β-mercaptoethanol (β-ME), 0.120 mM dUMP, and 0.060 mM mTHF. Following the addition of the enzyme (300 nM) and inhibitor mixture, the absorbance was monitored at 340 nm in a UV−Vis spectrophotometer for 3 min. In the control sample, an equal aliquot of enzyme alone was added. hTS activity inhibition percentages (I%) values were measured at 0.100−3000 µM concentration of inhibitor. […] The kinetic inhibition pattern was studied for compound 7 [12]. The inhibition values are expressed as mean ± SEM; n = 3.

[2] = molecular target: T1, recombinant human thymidylate synthase (hTS); test: as above; format: biochemical; conditions: for IC50: room temperature (20–22 °C) under stirring, standard error ±20% of the value; for % inhibition of hTS: at 500 µM and 37 °C under stirring
IGROV-1 cells = test: Cytotoxicity, crystal violet cell growth assay, peptides transfected with SAINT-PhD; format: cell-based, human; conditions: at 10 and 25 µM, ranking among the 10 cPs, SAINT-PhD delivery
Protocol: (§1) The IGROV-1, A2780, and A2780/CP human ovarian cancer cell lines were grown as monolayer in RPMI 1640 medium containing 10% heat-inactivated fetal bovine serum and 50 µg/mL gentamycin sulfate (Euroclone, Devon, UK). Cultures were equilibrated with humidified 5% CO2 in air at 37 °C. The cDDP-resistant variant A2780/CP cell line, derived from the parent A2780 cell line, is about 10-fold resistant to cDDP and was developed by monthly exposure to cDDP, followed by chronic exposure to stepwise increases in cDDP concentration. All studies were performed in Mycoplasma negative cells, as routinely determined with the MycoAlert Mycoplasma detection kit (Lonza, Walkersville, MD, USA).
(§2) Treatment with each peptide was performed according to the standard transfection protocol of the SAINT-PhD delivery system (Synvolux Therapeutics, Leiden, Netherlands). Complexes of peptide (µg) with SAINT-PhD (µL) were prepared at appropriate ratios corresponding to the approximate µM concentrations indicated. For each protein sample, complexes were prepared as follows: for the treatment of a 24-well plate, the appropriate amount of each peptide was diluted in HBS, then SAINT-PhD was pipetted into the solution without vortexing; then, the mixture was incubated for 5 min at room temperature, and filled up to 500 µL with serum-free medium. The culture medium was aspirated from the cells, the SAINT-PhD/peptide complex was added to the wells and incubated 4 h (37 °C, 5% CO2). Afterward, complete RPMI was added to reach the appropriate volume for maintaining the cell culture for the duration of the experiments.
(§3) Cell growth was determined using a modified crystal violet assay. On selected days, the tissue culture medium was removed, and the cell monolayer fixed with methanol and stained with 0.2% crystal violet solution in 20% methanol for at least 30 min. After being washed several times with distilled water to remove excess dye, the cells were left to dry. The incorporated dye was solubilized in acidified isopropanol (1N HCl: 2-propanol, 1:10). After appropriate dilution, absorbance was determined spectrophotometrically at 540 nm. The extracted dye was proportional to cell biomass. The percentage of cytotoxicity was calculated by comparing the absorbance of cultures exposed to the drug to unexposed (control) cultures.

A2780/CP cells = test: as above; format: cell-based, human; conditions: SAINT-PhD delivery
Protocol: as §1, §2, §3

A2780 cells = test: as above; format: cell-based, human; conditions: SAINT-PhD delivery
Protocol: as §1, §2, §3

[3] = molecular target: T1, recombinant human thymidylate synthase (hTS); conditions: at 100 µM; ref [20]; cited from earlier work

T1 sequence (P04818 whole entry): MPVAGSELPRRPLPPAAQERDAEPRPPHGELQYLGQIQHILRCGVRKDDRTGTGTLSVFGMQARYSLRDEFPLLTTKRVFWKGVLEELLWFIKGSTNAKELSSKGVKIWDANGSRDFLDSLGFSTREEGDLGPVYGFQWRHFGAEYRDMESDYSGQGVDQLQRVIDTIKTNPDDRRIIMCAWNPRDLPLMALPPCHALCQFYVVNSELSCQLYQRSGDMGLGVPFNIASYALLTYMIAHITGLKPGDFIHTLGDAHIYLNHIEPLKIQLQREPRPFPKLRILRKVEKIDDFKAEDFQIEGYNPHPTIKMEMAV

Row | IC50 [2] | inhibition at 500 µM [1] [%] | Compound | cytotoxicity (in words) (IGROV-1 cells) | % inhibition of hTS [1] | % inhibition of hTS [2] | other results
1 | 900 µM |  | CC(C)C[C@@H]1NC(=O)[C@H](CCC(N)=O)NC(=O)[C@H](C)NC(=O)[C@@H](NC(=O)[C@@H](N)CC(C)C)CSSC[C@@H](C(=O)O)NC(=O)[C@H](CCC(N)=O)NC(=O)[C@H](Cc2ccc(O)cc2)NC1=O [Peptide 2, Leu-c[Cys-Ala-Gln-Leu-Tyr-Gln-Cys]] (H-LCAQLYQC-OH; disulfide 2-8) | least active |  |  | inhibition at 400 µM ([1]; at 400 µM and r.t. under stirring): 36%
2 | 856 µM | 38 | CC(C)C[C@@H]1NC(=O)[C@H](CCC(N)=O)NC(=O)[C@@H]2CCCN2C(=O)[C@@H](NC(=O)[C@@H](N)CC(C)C)CSSC[C@@H](C(=O)O)NC(=O)[C@H](CCC(N)=O)NC(=O)[C@H](Cc2ccc(O)cc2)NC1=O [Peptide 8, Leu-c[Cys-Pro-Gln-Leu-Tyr-Gln-Cys]] (H-LCPQLYQC-OH; disulfide 2-8) | least active |  |  | 
3 | 484 µM and 474 µM | 50 | CC(C)C[C@@H]1NC(=O)[C@H](CCC(N)=O)NC(=O)[C@@H]2CCCN2C(=O)[C@H](CO)NC(=O)[C@@H](N)CSSC[C@@H](C(=O)O)NC(=O)[C@H](CCC(N)=O)NC(=O)[C@H](Cc2ccc(O)cc2)NC1=O [Peptide 10] (H-CSPQLYQC-OH; disulfide 1-8) | intermediate cytotoxicities |  |  | 

Further lines, the compound ahead of its results:

Row | Compound | IC50 [2] | inhibition at 500 µM [1] [%] | cytotoxicity (in words) (IGROV-1 cells) | % inhibition of hTS [1] | % inhibition of hTS [2] | other results
4 | CC(C)C[C@@H]1NC(=O)[C@H](CCC(N)=O)NC(=O)[C@@H]2CCCN2C(=O)[C@@H](NC(=O)[C@@H](N)CC(C)C)CSSC[C@@H](C(=O)N[C@@H](CCC(N)=O)C(=O)N[C@@H](CCCNC(=N)N)C(=O)O)NC1=O [Peptide 6, Leu-c[Cys-Pro-Gln-Leu-Cys]-Gln-Arg] (H-LCPQLCQR-OH; disulfide 2-6) |  |  | least active; also recorded: almost non-cytotoxic | inactive | inactive | cytotoxicity (in words) (A2780/CP cells): almost non-cytotoxic; cytotoxicity (in words) (A2780 cells): almost non-cytotoxic
5 | CC(C)C[C@@H]1NC(=O)[C@H](CCC(N)=O)NC(=O)[C@@H]2CCCN2C(=O)[C@@H](NC(=O)[C@@H](N)CC(C)C)CSSCCNC(=O)[C@H](CCCNC(=N)N)NC(=O)[C@H](CCC(N)=O)NC(=O)[C@H](Cc2ccc(O)cc2)NC1=O [Peptide 9, Leu-c[Cys-Pro-Gln-Leu-Tyr-Gln-Arg-CAM]] (H-LCPQLYQR-Cysteamide; disulfide 2-C) |  |  | intermediate cytotoxicities | inactive; also recorded: N.I. at 500 µM and r.t. N.I. at 500 µM and 37 °C under stirring | inactive; also recorded: N.I. at 500 µM and r.t. N.I. at 500 µM and 37 °C under stirring | 
6 | LSPQLYQR [[Pro^3]LR, proline mutant of LR] |  |  |  |  |  | % inhibition of hTS [3]: 25% at 100 µM ^c
